The record followed here is patent US20010008892A1 (priority 1998, published 2001).

Where only a bound is given, the exact number is not on record here.

The test system of one data set is MT4 cells. In words: Cytotoxicity in MT4 cells (LC50, 50% of the cells remain viable). Format: cell-based. The following applies: MT4 cells; concentration at which 50% of the cells remain viable. The source says: (§1) The IC50 is the concentration of compound that gives 50% inhibition of the cytopathic effect of HIV. The LC50 is the concentration of compound at which 50% of the cells remain viable.

A further data set deals with HIV. In words: Antiviral activity: inhibition of the cytopathic effect of HIV in MT4 cells. It is filed as cell-based. The following applies: MT4 cells; 50% inhibition of the cytopathic effect of HIV; read-out: EC50.
From the text: as §1
(In general: Cytopathic effects are the visible damage that an infection or toxin causes in cultured cells.)

The target of the next data set is HIV-1 protease (Human immunodeficiency virus type 1 group M subtype B, UniProt P04585). In words: Fluorogenic assay for screening inhibitors of HIV protease. The following applies: compound concentration 0.5 nM; fluorogenic substrate 1.3 μM, pH 4.5, 30° C.

Procedure for HIV-1 protease: A compound of the invention is dissolved in DMSO. A small aliquot is diluted with DMSO to 100 times the final concentration desired for testing. The test is carried out in a 6×50 mm tube in a total volume of 300 microliters. The final concentrations of the components in the reaction buffer are: 125 mM sodium acetate, 1 M sodium chloride, 5 mM dithiothreitol, 0.5 mg/ml bovine serum albumin, 1.3 μM fluorogenic substrate, 2% (v/v) dimethylsulfoxide, pH 4.5. After addition of inhibitor, the reaction mixture is placed in the fluorometer cell holder and incubated at 30° C. for several minutes. The reaction is initiated by the addition of a small aliquot of cold HIV protease. The fluorescence intensity (excitation 340 nm, emmision 490 nM) is recorded as a function of time. The reaction rate is determined for the first six to eight minutes. The observed rate is directly proportional to the moles of substrate cleaved per unit time. The percent inhibition is 100×(1- (rate in presence of inhibitor)/(rate in absence of inhibitor)).
The test compounds were then tested at a concentration of 0.5 nM.

As for `COc1ccc(CN2CCN(C[C@@H](O)[C@H](Cc3ccccc3)NC(=O)[C@@H](NC(=O)OCc3csc(C(C)C)n3)C(C)C)[C@H](C(=O)NC(C)(C)C)C2)cc1OC` [Example 11, 2-(1-Methylethyl)-4-thiazolylmethyl[(1S)-1-[[[(1S,2R)-3-[(2S)-4-[(3,4-dimethoxylphenyl)methyl]-2-[[(1,1-dimethylethyl)amino]carbonyl]-1-piperazinyl]-2-hydroxy-1-(phenylmethyl)propyl]amino]carbonyl]-2-methylpropyl]carbamate], in the data set with MT4 cells, the CC50 (usually the concentration that lowers cell viability or growth by half) was 18300 nM. The EC50 (usually the midpoint of the concentration-response curve) with HIV came out at 17 nM. Also, at HIV-1 protease, the “% Inhib. (0.5 nM)” value was determined as 62%.

With `CC(C)c1nc(COC(=O)N[C@H](C(=O)N[C@@H](Cc2ccccc2)[C@H](O)CN2CCN(Cc3ccc4c(c3)OCO4)C[C@H]2C(=O)NC(C)(C)C)C(C)C)cs1` [Example 1, 2-(1-Methylethyl)-4-thiazolylmethyl-[(1S)-1-[[[(1S,2R)-3-[(2S)-4-(1,3-benzodioxol-5-ylmethyl)-2-[[(1,1-dimethylethyl)amino]carbonyl]-1-piperazinyl]-2-hydroxy-1-(phenylmethyl)propyl]amino]carbonyl]-2-methylpropyl]carbamate], the CC50 with MT4 cells worked out at 12800 nM. Moreover, the EC50 in the data set on HIV was found to be 3 nM. Besides, at HIV-1 protease, the “% Inhib. (0.5 nM)” value is listed as 60%.

`COc1ccc(CN2CCN(C[C@@H](O)[C@H](Cc3ccccc3)NC(=O)[C@@H](NC(=O)OCc3cnc(C(C)C)s3)C(C)C)[C@H](C(=O)NC(C)(C)C)C2)cc1OC` [Example 19, 2-(1-Methylethyl)-5-thiazolylmethyl-[(1S)-1-[[[(1S,2R)-3-[(2S)-4-[(3,4-dimethoxylphenyl)methyl]-2-[[(1,1-dimethylethyl)amino]carbonyl]-1-piperazinyl]-2-hydroxy-1-(phenylmethyl)propyl]amino]carbonyl]-2-methylpropyl]carbamate]: in the data set with MT4 cells, the CC50 was determined as 20700 nM. The EC50 with HIV came to 17 nM. Moreover, at HIV-1 protease, the “% Inhib. (0.5 nM)” value is 51%.

The molecule `Cc1nc(COC(=O)N[C@H](C(=O)N[C@@H](Cc2ccccc2)[C@H](O)CN2CCN(Cc3ccc4c(c3)OCO4)C[C@H]2C(=O)NC(C)(C)C)C(C)C)cs1` [Example 15, 2-Methyl-4-thiazolylmethyl-[(1S)-1-[[[(1S,2R)-3-[(2S)-4-(1,3-benzodioxol-5-ylmethyl)-2-[[(1,1-dimethylethyl)amino]carbonyl]-1-piperazinyl]-2-hydroxy-1-(phenylmethyl)propyl]amino]carbonyl]-2-methylpropyl]carbamate] displayed a CC50 with MT4 cells of 53100 nM. In the data set with HIV, the EC50 stood at 11 nM. Further, the “% Inhib. (0.5 nM)” value at HIV-1 protease was determined as 45%.

In turn, `CC(C)c1nc(COC(=O)N[C@H](C(=O)N[C@@H](Cc2ccccc2)[C@H](O)CN2CCN(Cc3cccnc3)C[C@H]2C(=O)NC(C)(C)C)C(C)C)cs1` [Example 6, 2-(1-Methylethyl)-4-thiazolylmethyl-[(1S)-1-[[[(1S,2R)-3-[(2S)-2-[[(1,1-dimethylethyl)amino]carbonyl]-4-(3-pyridinylmethyl)-1-piperazinyl]-2-hydroxy-1-(phenylmethyl)propyl]amino]carbonyl]-2-methylpropyl]carbamate] displayed a CC50 in the data set with MT4 cells of 58600 nM. For the same molecule, in the data set on HIV, the EC50 was found to be 12 nM. The “% Inhib. (0.5 nM)” value on HIV-1 protease turned out to be 60%.

In the data set with MT4 cells, `CC(C)c1nc(COC(=O)N[C@H](C(=O)N[C@@H](Cc2ccccc2)[C@H](O)CN2CCN(Cc3cccc(O)c3)C[C@H]2C(=O)NC(C)(C)C)C(C)C)cs1` [Example 5, 2-(1-Methylethyl)-4-thiazolylmethyl-[(1S)-1-[[[(1S,2R)-3-[(2S)-2-[[(1,1-dimethylethyl)amino]carbonyl]-4-[4-(3-hydroxyphenyl)methyl]-1-piperazinyl]-2-hydroxy-1-(phenylmethyl)propyl]amino]carbonyl]-2-methylpropyl]carbamate] gave a CC50 of 16700 nM. Also, the EC50 with HIV is 40 nM. For the same molecule, the “% Inhib. (0.5 nM)” value at HIV-1 protease was 69%.

In the data set on MT4 cells, `CCc1nc(COC(=O)N[C@H](C(=O)N[C@@H](Cc2ccccc2)[C@H](O)CN2CCN(Cc3ccc(OC)c(OC)c3)C[C@H]2C(=O)NC(C)(C)C)C(C)C)cs1` [Example 18] gave a CC50 of 44600 nM. The EC50 in the data set on HIV worked out at 19 nM. Further, on HIV-1 protease, the “% Inhib. (0.5 nM)” value stood at 82%.

Consider `CC(C)c1nc(COC(=O)N[C@H](C(=O)N[C@@H](Cc2ccccc2)[C@H](O)CN2CCN(Cc3ccccc3)C[C@H]2C(=O)NC(C)(C)C)C(C)C)cs1` [Example 2, 2-(1-Methylethyl)-4-thiazolylmethyl-[(1S)-1-[[[(1S,2R)-3-[(2S)-2-[[(1,1-dimethylethyl)amino]carbonyl]-4-(phenylmethyl)-1-piperazinyl]-2-hydroxy-1-(phenylmethyl)propyl]amino]carbonyl]-2-methylpropyl]carbamate], for which it took 47100 nM to reach half-maximal cytotoxicity in the data set on MT4 cells (CC50). The EC50 with HIV amounted to 22 nM. On HIV-1 protease, the “% Inhib. (0.5 nM)” value is recorded as 66%.

For the molecule `CC(C)[C@H](NC(=O)OCc1cncs1)C(=O)N[C@@H](Cc1ccccc1)[C@H](O)CN1CCN(Cc2cncs2)C[C@H]1C(=O)NC(C)(C)C` [Example 25], in the data set on MT4 cells, the CC50 is above 100000 nM. Further, in the data set with HIV, the EC50 was determined as 57 nM. The “% Inhib. (0.5 nM)” value at HIV-1 protease was 45%.

Molecule `CC(C)c1nc(COC(=O)N[C@H](C(=O)N[C@@H](Cc2ccccc2)[C@H](O)CN2CCN(Cc3ccncc3)C[C@H]2C(=O)NC(C)(C)C)C(C)C)cs1` [Example 7, 2-(1-Methylethyl)-4-thiazolylmethyl-[(1S)-1-[[[(1S,2R)-3-[(2S)-2-[[(1,1-dimethylethyl)amino]carbonyl]-4-(4-pyridinylmethyl)-1-piperazinyl]-2-hydroxy-1-(phenylmethyl)propyl]amino]carbonyl]-2-methylpropyl]carbamate] came in with a CC50 in the data set with MT4 cells of 55200 nM. In addition, in the data set on HIV, the EC50 was found to be 17 nM. On HIV-1 protease, the “% Inhib. (0.5 nM)” value was 73%.

`CC(C)c1nc(COC(=O)N[C@H](C(=O)N[C@@H](Cc2ccccc2)[C@H](O)CN2CCN(Cc3ccc4ccccc4n3)C[C@H]2C(=O)NC(C)(C)C)C(C)C)cs1` [Example 10, 2-(1-Methylethyl)-4-thiazolylmethyl-[(1S)-1-[[[(1S,2R)-3-[(2S)-2-[[(1,1-dimethylethyl)amino]carbonyl]-4-(2-quinolinylmethyl)-1-piperazinyl]-2-hydroxy-1-(phenylmethyl)propyl]amino]carbonyl]-2-methylpropyl]carbamate] showed a CC50 in the data set with MT4 cells of 18200 nM. The EC50 in the data set on HIV was found to be 14 nM. For the same molecule, the “% Inhib. (0.5 nM)” value at HIV-1 protease was determined as 70%.

As for “2-(1-Methylethyl)-4-thiazolylmethyl-(1S)-1-[[[(1S,2R)-3-[[(4-aminophenyl)sulfonyl](1-methylethyl)amino]-2-hydroxy-1-(phenylmethyl)propyl]amino]carbonyl]-2-methylpropyl]carbamate [Example 28]”, the CC50 in the data set with MT4 cells came out at 49500 nM. The EC50 in the data set on HIV is 11 nM. Also, on HIV-1 protease, the “% Inhib. (0.5 nM)” value is on record as 77%.

In the data set on MT4 cells, `COc1ccc(CN2CCN(C[C@@H](O)[C@H](Cc3ccccc3)NC(=O)[C@@H](NC(=O)OCc3csc(C)n3)C(C)C)[C@H](C(=O)NC(C)(C)C)C2)cc1OC` [Example 16, 2-Methyl-4-thiazolylmethyl-[(1S)-1-[[[(1S,2R)-3-[(2S)-4-[(3,4-dimethoxylphenyl)methyl]-2-[[(1,1-dimethylethyl)amino]carbonyl]-1-piperazinyl]-2-hydroxy-1-(phenylmethyl)propyl]amino]carbonyl]-2-methylpropyl]carbamate] yielded a CC50 of 61700 nM. The EC50 in the data set on HIV amounted to 10 nM. In addition, at HIV-1 protease, the “% Inhib. (0.5 nM)” value amounted to 49%.

In the data set on MT4 cells, `CC(C)c1nc(COC(=O)N[C@H](C(=O)N[C@@H](Cc2ccccc2)[C@H](O)CN2CCN(Cc3ccc(F)cc3)C[C@H]2C(=O)NC(C)(C)C)C(C)C)cs1` [Example 3] gave a CC50 of 15700 nM. In addition, the EC50 in the data set on HIV is 21 nM. Besides, the “% Inhib. (0.5 nM)” value on HIV-1 protease is 64%.

For `CC(C)c1nc(COC(=O)N[C@H](C(=O)N[C@@H](Cc2ccccc2)[C@H](O)CN2CCN(Cc3nc4ccccc4[nH]3)C[C@H]2C(=O)NC(C)(C)C)C(C)C)cs1` [Example 9], the CC50 in the data set on MT4 cells worked out at 18400 nM. Further, the EC50 in the data set on HIV is 46 nM. The “% Inhib. (0.5 nM)” value on HIV-1 protease was found to be 65%.

With `CCc1ncc(COC(=O)N[C@H](C(=O)N[C@@H](Cc2ccccc2)[C@H](O)CN2CCN(Cc3ccc(OC)c(OC)c3)C[C@H]2C(=O)NC(C)(C)C)C(C)C)s1` [Example 20], the CC50 with MT4 cells was determined as 49700 nM. In the data set on HIV, the EC50 came out at 16 nM. In addition, the “% Inhib. (0.5 nM)” value at HIV-1 protease is on record as 37%.

On to “2-(1-Methylethyl)-4-thiazolylmethyl-[(1S)-1-[[[(1S,2R)-3-[(2S)-2-[[(1,1-dimethylethyl)amino]carbonyl]-4-(5-thienylmethyl)-1-piperazinyl]-2-hydroxy-1-(phenylmethyl)propyl]amino]carbonyl]-2-methylpropyl]carbamate [Example 4]”, for which the CC50 in the data set with MT4 cells was 69000 nM. The EC50 in the data set with HIV is 12 nM. At HIV-1 protease, the “% Inhib. (0.5 nM)” value is given as 67%.

Consider `CC(C)c1ncc(CN(C)C(=O)N[C@H](C(=O)N[C@@H](Cc2ccccc2)[C@H](O)CN2C[C@H]3CCCC[C@H]3C[C@H]2C(=O)NC(C)(C)C)C(C)C)s1` [Example 31, N′-[(1S)-1-[[[(1S,2 R)-3-[(3S)-3-[[(1,1-Dimethylethyl)amino]carbonyl](4aα,8aα)-octahydro-2-isoquinolinyl]-2-hydroxy-1-(phenylmethyl)propyl]amino]carbonyl]-2-methylpropyl]-N-methyl-N-[2-(1-methylethyl)-5-thiazolylmethyl]urea], for which, in the data set on MT4 cells, it took 17200 nM to reach half-maximal cytotoxicity (CC50). For the same molecule, in the data set on HIV, the concentration giving a half-maximal response (EC50) was determined as 58 nM. Moreover, the “% Inhib. (0.5 nM)” value on HIV-1 protease is 48%.
